Two compounds from patent publication US20080057531A1, “SYSTEMS, KITS, AND METHODS FOR DETECTING CARIOGENIC BACTERIA AND ASSESSING RISK OF DENTAL CARIES” (Oregon Health and Science University, priority 2006, published 2008) can be followed below.

Where a SMILES comes first, the peptide text is derived from it. Bridges are numbered along the chain shown (N, C = ends). [ ]: non-standard residue; d: D form. The star is where a group is joined. Ileψ(thiazoline)Cys = CC[C@H](C)[C@H](N)C1=N[C@H](C(=O)*)CS1; dOrn = NCCC[C@@H](N)C(=O)O

The test system of test [1] is oral streptococci, including cariogenic S. mutans and non-cariogenic S. salivarius and S. sanguis. The test is described as follows: sucrose as accelerant of growth of oral streptococci, suspended bacteria. The conditions noted are these: varying sucrose concentrations, FIG. 4. The class given is cell-based. The source says: (§1) FIG. 4 illustrates the effect of sucrose as a potential accelerant of growth of four different oral streptococci, increase of four different streptococci strains, including measurement of adherent bacteria, in response to varying sucrose concentrations.
(§2) With reference to FIG. 1, the linear portion of the curves in each graph illustrates a range of measurements that can be used to accurately correlate ATP concentration and relative light units. FIG. 2 illustrates that the relationship of ATP content and viable cell number is linear during exponential phase of growth. However, ATP content becomes diminished during transition from exponential phase to […] of growth. […] Cultures tested include Streptococcus mutans ATCC 700610, Streptococcus mutans A TCC 25175, Streptococcus sanguis and Streptococcus sobrinus. Overnight cultures were prepared using BHI medium and then inoculum was transferred to fresh BHI medium in the presence (0.5 U/ml-10 U/ml) or absence of bacitracin. […] Thus, the presence of sucrose may represent a further improvement of the current CariScreen device, by 1) extending the effectiveness of bacitracin selection and by 2) increasing the likelihood or allowing all oral microorganisms to remain in an exponential phase of growth, which based on FIG. 2, represents an accurate determinant of bacterial number as measured by ATP.

In the next test the test system is S. mutans. The test is described as follows: sucrose effect on adherence of bacteria in a biofilm on the culture vessel. The class given is cell-based, Streptococcus mutans. The conditions noted are these: sucrose especially at 0.5-1%, FIG. 4.
Source text: as §1, §2

For the next test, the system named is S. sobrinus. The test is described as follows: bacitracin selection in suspended solution format, growth measured by ATP luminescence. The class given is cell-based, Streptococcus sobrinus. The conditions noted are these: 0.5-1.0 U/ml bacitracin in BHI medium, FIG. 3.
Source text: (§3) FIG. 3 illustrates the relationship between bacitracin concentration and effect on growth of several oral streptococci species as measured by ATP luminescence.
as §2

Another test concerns cariogenic S. mutans. The test is described as above. Type of test: cell-based, Streptococcus mutans. To be noted: 0.5-1.0 U/ml bacitracin in BHI medium, FIG. 3.
Source text: as §3, §2

A further test deals with S. mutans in saliva. The test is described as follows: bacitracin selection for S. mutans in pediatric saliva samples incubated in BHI media. To be noted: four hours of bacitracin treatment, 7% at time 0, FIG. 5. The class given is cell-based, Streptococcus mutans. The source says: FIG. 5 illustrates the bacitracin-based selection for the highly cariogenic S. mutans species in the presence of non-mutans streptococci.
This example describes a clinical study, examining the application of bacitracin selection (and sucrose growth accelerant) on oral micro-organisms found in dental plaque and saliva. This study examines up to 50 patients, with 3-4 plaque specimens and one saliva specimen per patient, and assesses the correlation between ATP content (measured by CariScreen meter and Veritas luminometer), wet weight of plaque specimens, total protein measurement, and viable bacterial numbers (total bacteria, total oral streptococci, Streptococcus mutans, and total lactobacilli as assessed with the use of plating on blood agar, mitis-salivarius agar, mitis-salivarius agar supplemented with bacitracin ([…] w/v), and Rogasa agar, respectively). […] With continued reference to FIG. 5, with four hours of bacitracin treatment the percentage of S. mutans in saliva went from 7% at time 0 to 75%. With reference to FIG. 6, a subject's saliva was added to BHI media±bacitracin (0.5 units/ml), and then incubated at 37° C. in a 5% carbon dioxide atmosphere. At times 0, 1, 2, and 4 hours samples were measured for ATP-driven bioluminescence and plated onto blood agar plates to measure total bacteria numbers. […]

Test [2] concerns non-cariogenic streptococci, such as S. sanguis. The test is described as follows: bacitracin selection in suspended solution format, growth measured by ATP luminescence. Type of test: cell-based, Streptococcus sanguis. The conditions noted are these: 0.5-1.0 U/ml bacitracin in BHI medium, FIG. 3.
Source text: as §3, §2

As for `OC[C@H]1O[C@@](CO)(O[C@H]2O[C@H](CO)[C@@H](O)[C@H](O)[C@H]2O)[C@@H](O)[C@@H]1O` [sucrose], in test [1], the “effect on growth phase and yield” value was “extend the exponential phase of growth and promote increased yields at saturation”. Also, the “effect on adherence in a biofilm coating the plastic surface of the culture vessel” value in the test on S. mutans is on record as “promote the increased adherance”.
Take `CC[C@H](C)[C@H](N)C1=N[C@H](C(=O)N[C@@H](CC(C)C)C(=O)N[C@H](CCC(=O)O)C(=O)N[C@H](C(=O)N[C@H]2CCCCNC(=O)[C@H](CC(N)=O)NC(=O)[C@@H](CC(=O)O)NC(=O)[C@H](Cc3cnc[nH]3)NC(=O)[C@@H](Cc3ccccc3)NC(=O)[C@H]([C@@H](C)CC)NC(=O)[C@@H](CCCN)NC2=O)[C@@H](C)CC)CS1` [bacitracin] ({Ileψ(thiazoline)Cys}-L[dE]IK[dOrn]I[dF]H[dD]N; lactam 4-C): the effect on growth entry is listed as “allows considerable break-through of growth” in the test on S. sobrinus, “allows considerable break-through of growth” in the test with cariogenic S. mutans and “greatly inhibit” in test [2]. In addition, the “percentage of S. mutans in saliva” value in the test with S. mutans in saliva was 75%.
